Experimental data from PubChem BioAssay AID1745844 (Carcinogenic Potency Database (CPDB), 2022).

System: rodent lifetime carcinogenesis bioassay, tumor incidence TD50
Assay: chronic cancer bioassays in animals – CPDB, compiled studies (AID 1745844)
Details: by gavage

## ClCC(Cl)CCl
mouse, strain B6C3F1, females, site: Harderian gland, lesion: adenoma + adenoma, bilateral, dosed 88 weeks, study length 104 weeks
  TD50: 7.05 mg/kg/day
mouse, strain B6C3F1, females, site: all sites, lesion: histiocytic sarcoma + malignant lymphoma, histiocytic type + malignant lymphoma, mixed type + malignant lymphoma, lymphocytic, dosed 88 weeks, study length 104 weeks
  TD50: 8.64 mg/kg/day
mouse, strain B6C3F1, females, site: all sites, lesion: malignant lymphoma, histiocytic type + malignant lymphoma, mixed type + malignant lymphoma, lymphocytic type + malignant lymph, dosed 88 weeks, study length 104 weeks
  TD50: 7.08 mg/kg/day
mouse, strain B6C3F1, females, site: any site (literature study), lesion: several types, types named in the paper, dosed 88 weeks, study length 104 weeks
  TD50: 0.806 mg/kg/day
mouse, strain B6C3F1, females, site: forestomach + Harderian gland + liver + palate + pharynx + uterus, lesion: squamous-cell carcinoma + squamous-cell papilloma + adenoma + adenoma, bilateral + hepatocellular adenoma + hepatocellular carcino, dosed 88 weeks, study length 104 weeks
  TD50: 0.826 mg/kg/day
mouse, strain B6C3F1, females, site: forestomach, lesion: squamous-cell carcinoma + squamous-cell papilloma, dosed 88 weeks, study length 104 weeks
  TD50: 0.828 mg/kg/day
mouse, strain B6C3F1, females, site: forestomach, lesion: squamous-cell carcinoma, dosed 88 weeks, study length 104 weeks
  TD50: 0.97 mg/kg/day
mouse, strain B6C3F1, females, site: forestomach, lesion: squamous-cell papilloma, dosed 88 weeks, study length 104 weeks
  TD50: 1.64 mg/kg/day
mouse, strain B6C3F1, females, site: liver, lesion: hepatocellular adenoma + hepatoblastoma + hepatocellular carcinoma, dosed 88 weeks, study length 104 weeks
  TD50: 2.93 mg/kg/day
mouse, strain B6C3F1, females, site: liver, lesion: hepatocellular adenoma + hepatocellular carcinoma, dosed 88 weeks, study length 104 weeks
  TD50: 2.93 mg/kg/day
mouse, strain B6C3F1, females, site: liver, lesion: hepatocellular adenoma, dosed 88 weeks, study length 104 weeks
  TD50: 3.33 mg/kg/day
mouse, strain B6C3F1, females, site: liver, lesion: hepatocellular carcinoma, dosed 88 weeks, study length 104 weeks
  TD50: 28.7 mg/kg/day
mouse, strain B6C3F1, females, site: lung, lesion: alveolar/bronchiolar adenoma + alveolar/bronchiolar carcinoma, dosed 88 weeks, study length 104 weeks
  TD50: 14.3 mg/kg/day
mouse, strain B6C3F1, females, site: lung, lesion: alveolar/bronchiolar adenoma, dosed 88 weeks, study length 104 weeks
  TD50: 14.6 mg/kg/day
mouse, strain B6C3F1, females, site: palate + pharynx + tongue, lesion: squamous-cell carcinoma + squamous-cell papilloma, dosed 88 weeks, study length 104 weeks
  TD50: 47 mg/kg/day
mouse, strain B6C3F1, females, site: palate + pharynx, lesion: squamous-cell carcinoma, dosed 88 weeks, study length 104 weeks
  TD50: 154 mg/kg/day
mouse, strain B6C3F1, females, site: uterus, lesion: endometrial stromal polyp, dosed 88 weeks, study length 104 weeks
  TD50: 22.9 mg/kg/day
mouse, strain B6C3F1, females, site: uterus, lesion: endometrium, adenocarcinoma, dosed 88 weeks, study length 104 weeks
  TD50: 8.47 mg/kg/day
mouse, strain B6C3F1, females, site: uterus, lesion: endometrium, adenoma + endometrium, adenocarcinoma, dosed 88 weeks, study length 104 weeks
  TD50: 6.62 mg/kg/day
mouse, strain B6C3F1, females, site: uterus, lesion: endometrium, adenoma, dosed 88 weeks, study length 104 weeks
  TD50: 34.9 mg/kg/day
mouse, strain B6C3F1, males, site: Harderian gland, lesion: adenoma, dosed 90 weeks, study length 104 weeks
  TD50: 13.7 mg/kg/day
mouse, strain B6C3F1, males, site: any site (literature study), lesion: several types, types named in the paper, dosed 90 weeks, study length 104 weeks
  TD50: 1.06 mg/kg/day
mouse, strain B6C3F1, males, site: forestomach + Harderian gland + liver, lesion: squamous-cell carcinoma + squamous-cell papilloma + adenoma + hepatocellular adenoma + hepatocellular carcinoma, dosed 90 weeks, study length 104 weeks
  TD50: 0.996 mg/kg/day
mouse, strain B6C3F1, males, site: forestomach, lesion: squamous-cell carcinoma + squamous-cell papilloma, dosed 90 weeks, study length 104 weeks
  TD50: 0.928 mg/kg/day
mouse, strain B6C3F1, males, site: forestomach, lesion: squamous-cell carcinoma, dosed 90 weeks, study length 104 weeks
  TD50: 1.34 mg/kg/day
mouse, strain B6C3F1, males, site: forestomach, lesion: squamous-cell papilloma, dosed 90 weeks, study length 104 weeks
  TD50: 1.63 mg/kg/day
mouse, strain B6C3F1, males, site: liver, lesion: hepatocellular adenoma + hepatoblastoma + hepatocellular carcinoma, dosed 90 weeks, study length 104 weeks
  TD50: 2.13 mg/kg/day
mouse, strain B6C3F1, males, site: liver, lesion: hepatocellular adenoma + hepatocellular carcinoma, dosed 90 weeks, study length 104 weeks
  TD50: 2.13 mg/kg/day
mouse, strain B6C3F1, males, site: liver, lesion: hepatocellular adenoma, dosed 90 weeks, study length 104 weeks
  TD50: 2.87 mg/kg/day
mouse, strain B6C3F1, males, site: liver, lesion: hepatocellular carcinoma, dosed 90 weeks, study length 104 weeks
  TD50: 6.28 mg/kg/day
mouse, strain B6C3F1, males, site: lung, lesion: alveolar/bronchiolar adenoma + alveolar/bronchiolar carcinoma, dosed 90 weeks, study length 104 weeks
  TD50: 9.32 mg/kg/day
mouse, strain B6C3F1, males, site: lung, lesion: alveolar/bronchiolar adenoma, dosed 90 weeks, study length 104 weeks
  TD50: 11.2 mg/kg/day
mouse, strain B6C3F1, males, site: tongue, lesion: squamous-cell papilloma, dosed 90 weeks, study length 104 weeks
  TD50: 454 mg/kg/day
rat, strain Fischer 344, females, site: Zymbal's gland, lesion: carcinoma, dosed 91 weeks, study length 105 weeks
  TD50: 59 mg/kg/day
rat, strain Fischer 344, females, site: all sites, lesion: mononuclear-cell leukemia, dosed 91 weeks, study length 105 weeks
  TD50: 7.11 mg/kg/day
rat, strain Fischer 344, females, site: any site (literature study), lesion: several types, types named in the paper, dosed 91 weeks, study length 105 weeks
  TD50: 1.02 mg/kg/day
rat, strain Fischer 344, females, site: clitoral gland + forestomach + mammary gland + palate + pharynx + tongue + Zymbal's gland, lesion: adenoma + adenoma, bilateral + carcinoma + carcinoma, bilateral + squamous-cell carcinoma + squamous-cell papilloma + adenocarcinoma, dosed 91 weeks, study length 105 weeks
  TD50: 1.07 mg/kg/day
rat, strain Fischer 344, females, site: clitoral gland, lesion: adenoma + adenoma, bilateral + carcinoma + carcinoma, bilateral, dosed 91 weeks, study length 105 weeks
  TD50: 3.58 mg/kg/day
rat, strain Fischer 344, females, site: clitoral gland, lesion: adenoma + adenoma, bilateral, dosed 91 weeks, study length 105 weeks
  TD50: 4.04 mg/kg/day
rat, strain Fischer 344, females, site: clitoral gland, lesion: carcinoma + carcinoma, bilateral, dosed 91 weeks, study length 105 weeks
  TD50: 49.5 mg/kg/day
rat, strain Fischer 344, females, site: colon + jejunum, lesion: adenocarcinoma, dosed 91 weeks, study length 105 weeks
  TD50: 78.4 mg/kg/day
rat, strain Fischer 344, females, site: forestomach, lesion: squamous-cell carcinoma + squamous-cell papilloma, dosed 91 weeks, study length 105 weeks
  TD50: 1.64 mg/kg/day
rat, strain Fischer 344, females, site: forestomach, lesion: squamous-cell carcinoma, dosed 91 weeks, study length 105 weeks
  TD50: 7.77 mg/kg/day
rat, strain Fischer 344, females, site: forestomach, lesion: squamous-cell papilloma, dosed 91 weeks, study length 105 weeks
  TD50: 1.94 mg/kg/day
rat, strain Fischer 344, females, site: liver, lesion: hepatocellular adenoma + hepatoblastoma + hepatocellular carcinoma, dosed 91 weeks, study length 105 weeks
  TD50: 81.4 mg/kg/day
rat, strain Fischer 344, females, site: mammary gland, lesion: adenocarcinoma + adenoma + fibroadenoma, dosed 91 weeks, study length 105 weeks
  TD50: 1.98 mg/kg/day
rat, strain Fischer 344, females, site: mammary gland, lesion: adenocarcinoma + adenoma, dosed 91 weeks, study length 105 weeks
  TD50: 5.5 mg/kg/day
rat, strain Fischer 344, females, site: mammary gland, lesion: adenocarcinoma, dosed 91 weeks, study length 105 weeks
  TD50: 5.91 mg/kg/day
rat, strain Fischer 344, females, site: mammary gland, lesion: adenoma + fibroadenoma, dosed 91 weeks, study length 105 weeks
  TD50: 3.32 mg/kg/day
